The results in this text go back to ChEMBL document CHEMBL1147001, “Synthesis and antibacterial activity of novel oxazolidinones bearing N-hydroxyacetamidine substituent” (2006).

Converted amounts (≈) assume the structure as drawn.

Type in all cases: functional
In test [1] the test system is Staphylococcus aureus. Put plainly: Antibacterial activity against methicillin-susceptible Staphylococcus aureus DRCC 035.
In test [2] the test system is Staphylococcus aureus. Kind of test: Antibacterial activity against methicillin-resistant Staphylococcus aureus DRCC 019.
For test [3], the system named is Enterococcus faecalis. Kind of test: Antibacterial activity against vancomycin-susceptible Enterococcus faecalis DRCC 034.
Test [4] concerns Enterococcus faecalis. Put plainly: Antibacterial activity against vancomycin-resistant Enterococcus faecalis DRCC 154.
In another test the test system is Haemophilus influenzae. Kind of test: Antibacterial activity against beta lactamase negative Haemophilus influenzae DRCC 433.
The subject of test [5] is Enterococcus faecalis. Kind of test: Antibacterial activity against vancomycin-resistant Enterococcus faecalis DRCC 153.
Test [6] has as its system Staphylococcus aureus. Kind of test: Antibacterial activity against methicillin-resistant Staphylococcus aureus DRCC 446.
A further test has as its system Moraxella catarrhalis. Kind of test: Antibacterial activity against beta lactamase negative Moraxella catarrhalis DRCC 300.
Test [7] concerns Staphylococcus aureus. Kind of test: Efficacy against po dosed mouse infected with Staphylococcus aureus ATCC 29213.

As to `C/C(S)=N/C[C@H]1CN(c2ccc(N3CCN(CC(=N)NO)CC3)c(F)c2)C(=O)O1`, the MIC was 2 µg/mL (≈ 4.71 µM) with Staphylococcus aureus [1]; 1 µg/mL (≈ 2.36 µM) in the test on Staphylococcus aureus [2]; 1 µg/mL (≈ 2.36 µM) in the test on Enterococcus faecalis [3]; 1 µg/mL (≈ 2.36 µM) against Enterococcus faecalis [4]; 4 µg/mL (≈ 9.42 µM) against Haemophilus influenzae; 1 µg/mL (≈ 2.36 µM) with Enterococcus faecalis [5]. This compound registered an MIC with Staphylococcus aureus [6] of 1 µg/mL (≈ 2.36 µM).
For `N/C(CN1CCN(c2ccc(N3C[C@H](CNC(=O)C(F)F)OC3=O)cc2F)CC1)=N\O`, the MIC against Staphylococcus aureus [1] is 4 µg/mL (≈ 9 µM); against Staphylococcus aureus [2], 4 µg/mL (≈ 9 µM); with Enterococcus faecalis [3] it was 4 µg/mL (≈ 9 µM); in the test on Enterococcus faecalis [4] it was 4 µg/mL (≈ 9 µM); in the test with Haemophilus influenzae it was 4 µg/mL (≈ 9 µM); against Enterococcus faecalis [5], 2 µg/mL (≈ 4.5 µM). The MIC with Moraxella catarrhalis was determined as 8 µg/mL (≈ 18 µM); in the test on Staphylococcus aureus [6], 4 µg/mL (≈ 9 µM). This compound registered an ED50 in the test with Staphylococcus aureus [7] of 12.1 mg/kg/day.
With `COC(=O)NC[C@H]1CN(c2cc(F)c(N3CCN(CC(=N)NO)CC3)c(F)c2)C(=O)O1`, the MIC turned out to be 2 µg/mL (≈ 4.52 µM) in the test with Staphylococcus aureus [1]; 1 µg/mL (≈ 2.26 µM) with Staphylococcus aureus [2]; 1 µg/mL (≈ 2.26 µM) with Enterococcus faecalis [3]; 2 µg/mL (≈ 4.52 µM) against Enterococcus faecalis [4]; 8 µg/mL (≈ 18.1 µM) against Haemophilus influenzae; 1 µg/mL (≈ 2.26 µM) with Enterococcus faecalis [5]. In addition, the MIC against Moraxella catarrhalis amounted to 2 µg/mL (≈ 4.52 µM); with Staphylococcus aureus [6], 1 µg/mL (≈ 2.26 µM). For the same compound, it took a dose of 32.2 mg/kg/day to reach the 50% effect level with Staphylococcus aureus [7] (ED50).
With `C/C(S)=N/C[C@H]1CN(c2cc(F)c(N3CCN(CC(=N)NO)CC3)c(F)c2)C(=O)O1`, the MIC in the test with Staphylococcus aureus [1] came out at 1 µg/mL (≈ 2.26 µM); with Staphylococcus aureus [2], 0.25 µg/mL (≈ 0.565 µM); in the test on Enterococcus faecalis [3], 0.5 µg/mL (≈ 1.13 µM); in the test with Enterococcus faecalis [4] it was 0.25 µg/mL (≈ 0.565 µM); in the test with Haemophilus influenzae, 4 µg/mL (≈ 9.04 µM); in the test on Enterococcus faecalis [5], 0.5 µg/mL (≈ 1.13 µM). Also, the figures for the MIC against Moraxella catarrhalis and in the test with Staphylococcus aureus [6] were 0.5 µg/mL (≈ 1.13 µM) and 0.25 µg/mL (≈ 0.565 µM), respectively. Besides, the ED50 with Staphylococcus aureus [7] is 22.1 mg/kg/day.
Consider `CO/C(S)=N/C[C@H]1CN(c2ccc(N3CCN(CC(=N)NO)CC3)c(F)c2)C(=O)O1`, for which the MIC against Staphylococcus aureus [1] is 1 µg/mL (≈ 2.27 µM); in the test on Staphylococcus aureus [2] it was 0.5 µg/mL (≈ 1.14 µM); in the test with Enterococcus faecalis [3] it was 0.5 µg/mL (≈ 1.14 µM); against Enterococcus faecalis [4] it was 0.5 µg/mL (≈ 1.14 µM); in the test with Haemophilus influenzae it was 8 µg/mL (≈ 18.2 µM); with Enterococcus faecalis [5], 0.5 µg/mL (≈ 1.14 µM). Also, the MIC in the test on Moraxella catarrhalis worked out at 8 µg/mL (≈ 18.2 µM); against Staphylococcus aureus [6], 0.5 µg/mL (≈ 1.14 µM). For the same compound, in the test with Staphylococcus aureus [7], it took a dose of 21.2 mg/kg/day to reach the 50% effect level (ED50).
With `N/C(CN1CCN(c2ccc(N3C[C@H](COc4ccon4)OC3=O)cc2F)CC1)=N\O`, the MIC with Staphylococcus aureus [1] amounted to 16 µg/mL (≈ 36.8 µM); in the test with Staphylococcus aureus [2] it was 4 µg/mL (≈ 9.21 µM); in the test on Enterococcus faecalis [3], 16 µg/mL (≈ 36.8 µM); against Enterococcus faecalis [4] it was 16 µg/mL (≈ 36.8 µM); against Haemophilus influenzae, 256 µg/mL (≈ 589 µM); against Enterococcus faecalis [5], 8 µg/mL (≈ 18.4 µM). The results for the MIC in the test with Moraxella catarrhalis and against Staphylococcus aureus [6] were 8 µg/mL (≈ 18.4 µM) and 4 µg/mL (≈ 9.21 µM), respectively.
For the compound `N/C(CN1CCN(c2c(F)cc(N3C[C@H](CNC(=O)C(F)F)OC3=O)cc2F)CC1)=N\O`, the MIC was determined as 2 µg/mL (≈ 4.33 µM) against Staphylococcus aureus [1]; 1 µg/mL (≈ 2.16 µM) against Staphylococcus aureus [2]; 1 µg/mL (≈ 2.16 µM) against Enterococcus faecalis [3]; 1 µg/mL (≈ 2.16 µM) in the test with Enterococcus faecalis [4]; 4 µg/mL (≈ 8.65 µM) in the test on Haemophilus influenzae; 0.5 µg/mL (≈ 1.08 µM) against Enterococcus faecalis [5]. For the same compound, the MIC against Moraxella catarrhalis worked out at 2 µg/mL (≈ 4.33 µM); in the test with Staphylococcus aureus [6], 1 µg/mL (≈ 2.16 µM). The same compound registered an ED50 with Staphylococcus aureus [7] of 18.3 mg/kg/day.
As to `CC(=O)NC[C@H]1CN(c2ccc(N3CCN(CC(=N)NO)CC3)c(F)c2)C(=O)O1`, the MIC in the test on Staphylococcus aureus [1] is 16 µg/mL (≈ 39.2 µM); in the test on Staphylococcus aureus [2], 4 µg/mL (≈ 9.79 µM); in the test on Enterococcus faecalis [3], 8 µg/mL (≈ 19.6 µM); in the test on Enterococcus faecalis [4], 8 µg/mL (≈ 19.6 µM); in the test with Haemophilus influenzae, 8 µg/mL (≈ 19.6 µM); with Enterococcus faecalis [5], 2 µg/mL (≈ 4.9 µM). Further, the MIC in the test on Moraxella catarrhalis worked out at 8 µg/mL (≈ 19.6 µM); with Staphylococcus aureus [6] it was 4 µg/mL (≈ 9.79 µM).
For `CO/C(S)=N/C[C@H]1CN(c2cc(F)c(N3CCN(CC(=N)NO)CC3)c(F)c2)C(=O)O1`, the MIC worked out at 0.5 µg/mL (≈ 1.09 µM) in the test with Staphylococcus aureus [1]; 0.25 µg/mL (≈ 0.545 µM) with Staphylococcus aureus [2]; 0.25 µg/mL (≈ 0.545 µM) against Enterococcus faecalis [3]; 0.25 µg/mL (≈ 0.545 µM) in the test with Enterococcus faecalis [4]; 4 µg/mL (≈ 8.72 µM) against Haemophilus influenzae; 0.25 µg/mL (≈ 0.545 µM) against Enterococcus faecalis [5]. Further, the figures for the MIC in the test with Moraxella catarrhalis and in the test with Staphylococcus aureus [6] were 0.5 µg/mL (≈ 1.09 µM) and 0.25 µg/mL (≈ 0.545 µM), respectively. This compound gave an ED50 in the test on Staphylococcus aureus [7] of 32.2 mg/kg/day.
For `N/C(CN1CCN(c2c(F)cc(N3C[C@H](COc4ccon4)OC3=O)cc2F)CC1)=N\O`, the MIC in the test on Staphylococcus aureus [1] is 4 µg/mL (≈ 8.84 µM); against Staphylococcus aureus [2], 2 µg/mL (≈ 4.42 µM); in the test with Enterococcus faecalis [3], 4 µg/mL (≈ 8.84 µM); in the test with Enterococcus faecalis [4], 4 µg/mL (≈ 8.84 µM); in the test on Haemophilus influenzae it was greater than 32 µg/mL; against Enterococcus faecalis [5], 2 µg/mL (≈ 4.42 µM). In addition, the values for the MIC against Moraxella catarrhalis and against Staphylococcus aureus [6] were 16 µg/mL (≈ 35.4 µM) and 2 µg/mL (≈ 4.42 µM), respectively.
On to `COC(=O)NC[C@H]1CN(c2ccc(N3CCN(CC(=N)NO)CC3)c(F)c2)C(=O)O1`, for which the MIC in the test on Staphylococcus aureus [1] is 8 µg/mL (≈ 18.8 µM); against Staphylococcus aureus [2] it was 16 µg/mL (≈ 37.7 µM); against Enterococcus faecalis [3] it was 4 µg/mL (≈ 9.42 µM); in the test on Enterococcus faecalis [4], 16 µg/mL (≈ 37.7 µM); in the test on Haemophilus influenzae it was 32 µg/mL (≈ 75.4 µM); against Enterococcus faecalis [5], 4 µg/mL (≈ 9.42 µM). Further, the MIC was greater than 16 µg/mL in the test on Moraxella catarrhalis and 16 µg/mL (≈ 37.7 µM) with Staphylococcus aureus [6].
As for `CC(=O)NC[C@H]1CN(c2cc(F)c(N3CCN(CC(=N)NO)CC3)c(F)c2)C(=O)O1`, the MIC was 2 µg/mL (≈ 4.69 µM) in the test with Staphylococcus aureus [1]; 1 µg/mL (≈ 2.35 µM) with Staphylococcus aureus [2]; 1 µg/mL (≈ 2.35 µM) with Enterococcus faecalis [3]; 1 µg/mL (≈ 2.35 µM) against Enterococcus faecalis [4]; 4 µg/mL (≈ 9.38 µM) with Haemophilus influenzae; 1 µg/mL (≈ 2.35 µM) against Enterococcus faecalis [5]. Besides, the MIC against Moraxella catarrhalis was 4 µg/mL (≈ 9.38 µM); with Staphylococcus aureus [6], 1 µg/mL (≈ 2.35 µM).
In the case of `CC(=O)NC[C@H]1CN(c2ccc(N3CCOCC3)c(F)c2)C(=O)O1` [LINEZOLID], the MIC against Staphylococcus aureus [2] was found to be 1 µg/mL (≈ 2.96 µM); against Haemophilus influenzae, 8 µg/mL (≈ 23.7 µM); in the test on Moraxella catarrhalis it was 8 µg/mL (≈ 23.7 µM). In addition, in the test with Staphylococcus aureus [7], the ED50 amounted to 5.3 mg/kg/day.
